Data set [1] has as its system β-catenin-TCF-mediated reporter transcription activity in Colo 205 cells. Description: Colo 205 reporter assay (TCF/LEF promoter-driven firefly luciferase). The data set is classed as cell-based. As to conditions: Homo sapiens; Colo 205 TCF/LEF luciferase reporter, 5 hours after compound addition, 384 well; read-out: Colo205 IC50. For orientation: In a reporter assay the amount or activity of a reporter protein is the signal.

In data set [2] the test system is XBP1(u)-luciferase splicing reporter in HepG2 hepatoma cells. Description: HepG2 XBP1 reporter assay (XBP1(u)-Luc). The class given is cell-based. The conditions noted are these: Homo sapiens, 6 hours after compound addition, Table 3, read-out: XBP1-luc HepG2 1 EC50.
For data set [3], the system named is intracellular calcium flux in Colo-205 cells. Description: Calcium flux assay (FLIPR Calcium 5 Assay Kit, FLIPR3). The data set is classed as cell-based. The conditions noted are these: Homo sapiens, 0.6 h, calcium flux measured over 36 minutes, read-out: Colo 205 Calcium Flux assay 384w Boston Ca assay FLIPR3 Colo EC50. How it is done:
Compounds described herein induced ER stress by causing intracellular calcium flux. Calcium flux was measured in Colo-205 cells using the FLIPR® Calcium 5 Assay Kit according to manufacturer's protocol (Molecular Devices, Cat. #R8186) on a FLIPR3 system (Molecular Devices). Calcium flux is measured over 36 minutes. The Colo-205 calcium flux assay data are summarized in Table 3: A<0.6 μM; 0.6 μM≤B<2.0 μM; 2.0 μM≤C<10.0 μM; D≥10.0 μM.
On the technique in general: Calcium assays in cells follow changes in intracellular calcium, usually with a dye or a luminescent sensor.

Here are results for 9 molecules from patent publication US11440907B1 (Merck Patent GmbH, priority 2018, dated 2022).

Turning to `Cc1cc(N2CCCOCC2c2cc(C(O)C(F)(F)F)ccc2Cl)nc(N)n1` (racemic) [I-134, (+/−)-1-(3-(4-(2-amino-6-methylpyrimidin-4-yl)-1,4-oxazepan-3-yl)-4-chlorophenyl)-2,2,2-trifluoroethan-1-ol], the melting point (in general, the temperature of the solid-liquid transition) stood at 110 °C. Besides, in data set [1], the IC50 (as a rule, the point on the concentration scale where inhibition reaches its midpoint) was in the range of 300 to 1000 nM.
In turn, `CCNc1cc(C2COCCCN2c2cc(C)nc(N)n2)c(Cl)cc1F` (racemic) [I-272, (+/−)-4-[3-[2-chloro-5-(ethylamino)-4-fluoro-phenyl]-1,4-oxazepan-4-yl]-6-methyl-pyrimidin-2-amine] displayed a melting point of 180 °C. Besides, the IC50 in data set [1] fell in the range of 300 to 1000 nM. For the same molecule, in data set [2], the EC50 (commonly the concentration that produces a half-maximal response) fell in the range of 600 to 2000 nM.
Molecule `Cc1cc(N2CCCOCC2c2ccc(NC(=O)C(F)F)cc2Cl)nc(N)n1` (racemic) [I-278, (+/−)-N-(4-(4-(2-amino-6-methylpyrimidin-4-yl)-1,4-oxazepan-3-yl)-3-chlorophenyl)-2,2-difluoroacetamide] came in with a melting point of 188 to 190 °C. The IC50 in data set [1] is under 300 nM. Also, the EC50 in data set [2] was under 600 nM.
Regarding `COc1ccc(Cl)c(C2CCCCCN2c2cc(C)nc(N)n2)c1` (racemic) [I-117, (+/−)-4-(2-(2-chloro-5-methoxyphenyl)azepan-1-yl)-6-methylpyrimidin-2-amine], the melting point is 88 to 90 °C. The IC50 in data set [1] lay within 300 to 1000 nM.
Molecule `Cc1cc(N2CCCOCC2c2cc(NC(=O)CN(C)C)ccc2Cl)nc(N)n1` (racemic) [I-168, (+/−)-N-[3-[4-(2-amino-6-methyl-pyrimidin-4-yl)-1,4-oxazepan-3-yl]-4-chloro-phenyl]-2-(dimethylamino)acetamide] registered a melting point of 95 to 97 °C. The IC50 in data set [1] was in the range of 300 to 1000 nM.
As to `Cc1cc(N2CCCOCC2c2cc(N3CCCC3=O)ccc2Cl)nc(N)n1` (racemic) [I-119, 1-(3-(4-(2-amino-6-methylpyrimidin-4-yl)-1,4-oxazepan-3-yl)-4-chlorophenyl)pyrrolidin-2-one], the melting point fell in the range of 138 to 140 °C. In addition, the IC50 in data set [1] fell in the range of 300 to 1000 nM.
For the molecule `Cc1cc(N2CCCOC[C@@H]2c2cc(NS(C)(=O)=O)ccc2Cl)nc(N)n1` (single isomer, unassigned) [I-161], the melting point came to 160 °C. Further, in data set [1], the IC50 is under 300 nM. For the same molecule, the EC50 in data set [2] is under 600 nM.
In the case of `COc1ccc(Cl)c(C2COCCCN2c2cc(C)nc(N)n2)c1` (racemic) [I-118, (+/−)-4-(3-(2-chloro-5-methoxyphenyl)-1,4-oxazepan-4-yl)-6-methylpyrimidin-2-amine], the melting point was determined as 220 °C. Also, the IC50 in data set [1] fell in the range of 300 to 1000 nM.
Regarding `Cc1cc(N2CCCOC[C@@H]2c2ccc(Br)cc2Cl)nc(N)n1` (single isomer, unassigned) [I-201], the melting point fell in the range of 100 to 102 °C. The IC50 in data set [1] lay within 300 to 1000 nM. In data set [2], the EC50 is under 600 nM. The EC50 in data set [3] was under 600 nM.
